Calls of active or inactive are those of the source. The calls are words filed in the database; no cut-off is given here.
Assays:
[1] = tested on: Mycobacterium tuberculosis; test: Inhibition of Mycobacterium tuberculosis ThyA using dUMP as substrate up to 100 uM measured immediatedly and at 10 mins post mTHF addition by spectrophotometric analysis
[2] = tested on: Mycobacterium tuberculosis; test: Activation of Mycobacterium tuberculosis ThyA using dUMP as substrate up to 100 uM measured immediatedly and at 10 mins post mTHF addition by spectrophotometric analysis
[3] = (§1) Inhibition of Mycobacterium tuberculosis ThyX using [5-3H]dUMP as substrate after 10 mins by liquid scintillation counting analysis
[4] = tested on: Mycobacterium tuberculosis; test: as §1

Q: For `CCCCCCCCCCCOCc1cn([C@H]2C[C@H](O)[C@@H](COP(=O)(O)O)O2)c(=O)[nH]c1=O`, which inhibition [1] is on record?
A: inactive

Q: What about the Activity [2] of the same compound?
A: Active

Q: What about the IC50 [3] of the same compound?
A: 8.32 µM

Q: Which inhibition [1] does the source give for `CCCCCCCCCCc1cn(Cc2cn([C@H]3C[C@H](O)[C@@H](COP(=O)(O)O)O3)c(=O)[nH]c2=O)nn1` here?
A: inactive

Q: And the inhibition [4]?
A: inactive

Q: Which inhibition [1] does the source give for `CCCCCCCCCCCCOCc1cn([C@H]2C[C@H](O)[C@@H](COP(=O)(O)O)O2)c(=O)[nH]c1=O` here?
A: inactive

Q: And the inhibition [4]?
A: inactive

Q: Which inhibition [1] does the source give for `CCCCCCCCCCCCOCc1cn([C@H]2C[C@H](N=[N+]=[N-])[C@@H](COP(=O)(O)O)O2)c(=O)[nH]c1=O` here?
A: inactive

Q: What about the inhibition [4] of the same compound?
A: inactive

Q: Which inhibition [1] does the source give for `CCCCCCCCCCOCc1cn([C@H]2C[C@H](O)[C@@H](COP(=O)(O)O)O2)c(=O)[nH]c1=O` here?
A: inactive

Q: What about the inhibition [4] of the same compound?
A: inactive

Q: Which results are given for `CCCCCCCCc1cn(Cc2cn([C@H]3C[C@H](O)[C@@H](COP(=O)(O)O)O3)c(=O)[nH]c2=O)nn1`?
A: inhibition [1]: inactive; inhibition [4]: inactive

Q: For `COCCOCCOCCOCc1cn([C@H]2C[C@H](O)[C@@H](COP(=O)(O)O)O2)c(=O)[nH]c1=O`, which inhibition [1] is on record?
A: inactive

Q: What about the inhibition [4] of the same compound?
A: inactive

Source: ChEMBL document CHEMBL3627679, “Synthesis and evaluation of C-5 modified 2'-deoxyuridine monophosphates as inhibitors of M. tuberculosis thymidylate synthase” (Bioorg Med Chem, 2015)
